Laboratory results as given in patent US20250360143A1, “COMPOSITIONS AND METHODS FOR PHA[…] OF STROKE AND […] REPERFUSION INJURY” (priority 2022, published 2025).
Structures can show the parent of a compound that is named as a salt. Where two headings read alike, the source gives them in different places.

Tests used:
Experiment in all cases: cell-based
[1] = molecular target: T1, hP2X1R (Homo sapiens, UniProt P51575); conditions: for inhibition at 30 µM: CHO-K1, percent inhibition at 30 μM, agonist α,β-MeATP 1.0 μM, read-out: hP2X1R % inhib.
T1 construct: expressed in transfected cells; host or cells: CHO-K1
T1 sequence (P51575 1-399): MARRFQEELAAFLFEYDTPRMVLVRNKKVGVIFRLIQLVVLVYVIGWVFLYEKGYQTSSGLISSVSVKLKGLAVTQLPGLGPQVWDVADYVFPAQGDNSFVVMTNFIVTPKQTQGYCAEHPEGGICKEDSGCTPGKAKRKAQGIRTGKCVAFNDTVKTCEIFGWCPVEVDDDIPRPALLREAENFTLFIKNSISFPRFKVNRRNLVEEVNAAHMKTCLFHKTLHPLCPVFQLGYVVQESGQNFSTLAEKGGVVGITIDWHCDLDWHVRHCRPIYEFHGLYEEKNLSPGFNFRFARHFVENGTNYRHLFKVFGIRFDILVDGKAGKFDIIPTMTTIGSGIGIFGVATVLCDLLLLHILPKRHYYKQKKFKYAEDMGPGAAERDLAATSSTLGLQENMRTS

[2] = molecular target: T2, hP2X2/3R (Homo sapiens, UniProt P56373+Q9UBL9); assay type: cell-based; conditions: for inhibition at 30 µM: CHO-K1, read-out: hP2X2/3R % inhib.
T2 construct: expressed in transfected cells; host or cells: CHO-K1
T2 sequence (Q9UBL9 1-471): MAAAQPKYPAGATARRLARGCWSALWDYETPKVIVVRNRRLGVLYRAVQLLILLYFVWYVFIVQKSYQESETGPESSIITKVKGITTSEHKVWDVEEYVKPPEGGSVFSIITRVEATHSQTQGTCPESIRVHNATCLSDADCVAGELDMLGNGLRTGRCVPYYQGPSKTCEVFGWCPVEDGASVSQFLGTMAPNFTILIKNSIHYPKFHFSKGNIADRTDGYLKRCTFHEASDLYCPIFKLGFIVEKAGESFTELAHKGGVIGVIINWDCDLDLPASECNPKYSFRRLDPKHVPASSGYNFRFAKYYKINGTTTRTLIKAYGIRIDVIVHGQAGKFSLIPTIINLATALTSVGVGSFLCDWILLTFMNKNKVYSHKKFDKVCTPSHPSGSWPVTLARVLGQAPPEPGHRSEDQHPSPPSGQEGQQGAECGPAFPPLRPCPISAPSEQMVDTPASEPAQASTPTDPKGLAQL
T2 sequence (P56373 1-397): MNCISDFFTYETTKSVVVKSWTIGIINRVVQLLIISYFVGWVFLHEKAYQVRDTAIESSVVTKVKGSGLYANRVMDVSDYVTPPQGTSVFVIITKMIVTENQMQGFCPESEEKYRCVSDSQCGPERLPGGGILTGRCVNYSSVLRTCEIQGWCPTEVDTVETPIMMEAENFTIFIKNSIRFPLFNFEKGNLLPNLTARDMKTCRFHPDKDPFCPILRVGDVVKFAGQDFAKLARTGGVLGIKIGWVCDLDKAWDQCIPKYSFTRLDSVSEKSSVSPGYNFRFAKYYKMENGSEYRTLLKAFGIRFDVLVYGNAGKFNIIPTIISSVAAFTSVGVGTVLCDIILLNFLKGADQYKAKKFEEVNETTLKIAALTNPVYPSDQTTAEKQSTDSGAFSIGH

[3] = molecular target: T3, hP2X3R (Homo sapiens, UniProt P56373); assay type: cell-based; conditions: for inhibition at 30 µM: CHO-K1, read-out: hP2X3R % inhib.
T3 construct: expressed in transfected cells; host or cells: CHO-K1
T3 sequence (P56373 1-397): T2 sequence (P56373 1-397)

[4] = molecular target: T4, hP2X4R (Homo sapiens, UniProt Q99571); assay type: cell-based; conditions: for inhibition at 30 µM: HEK293, read-out: hP2X4R % inhib.
T4 construct: expressed in transfected cells; host or cells: HEK-293
T4 sequence (Q99571 1-388): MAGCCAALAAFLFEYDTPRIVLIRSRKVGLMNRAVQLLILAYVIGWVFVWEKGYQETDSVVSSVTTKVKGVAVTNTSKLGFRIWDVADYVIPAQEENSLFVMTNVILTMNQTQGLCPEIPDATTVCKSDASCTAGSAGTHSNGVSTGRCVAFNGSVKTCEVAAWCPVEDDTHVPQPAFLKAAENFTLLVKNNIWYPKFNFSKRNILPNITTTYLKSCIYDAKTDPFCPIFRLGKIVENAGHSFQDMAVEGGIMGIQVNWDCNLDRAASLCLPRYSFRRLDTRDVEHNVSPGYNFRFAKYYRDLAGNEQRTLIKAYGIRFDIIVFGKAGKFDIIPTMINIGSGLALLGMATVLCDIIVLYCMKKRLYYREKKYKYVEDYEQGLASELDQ

[5] = percent inhibition at 30 μM, agonist α,β-MeATP 5.0 μM
[6] = percent inhibition at 30 μM, agonist α,β-MeATP 1.0 μM

In the case of “2′,3′-O-Trinitrophenyl-adenosine-5′-triphosphate [TNP-ATP, reference compound]”, the IC50 [1] is reported as 0.12 µM, the IC50 [2] is reported as 0.064 µM and the IC50 [3] is reported as 0.018 µM.
CCN(CC)CC.Cc1ccc2c(Br)cc3c(c2c1)NC(=O)CC(=O)N3c1cccc(-c2noc(=S)[nH]2)c1 [Compound 21e, 7-Bromo-10-methyl-5-(3-(5-thioxo-4,5-dihydro-1,2,4-oxadiazol-3-yl)phenyl)-1,5-dihydro-2H-naphtho[1,2-b][1,4]diazepine-2,4(3H)-dione triethylamine salt] was tested, and the hP2X1R % inhib. [1] was −2%, the hP2X2/3R % inhib. [2] was −5% and the hP2X3R % inhib. [3] was 17%. For the same compound, the IC50 [4] was 11.8 µM and the “hP2X4R inhibitory activity relative to 22a, in words” value [4] was “only moderately reduced activity”.
CCN(CC)CC.[N-]=[N+]=NCc1ccc2ccc3c(c2c1)NC(=O)CC(=O)N3c1cccc(-c2noc(=S)[nH]2)c1 [Compound 21g, 10-(azidomethyl)-5-(3-(5-thioxo-4,5-dihydro-1,2,4-oxadiazol-3-yl)phenyl)-1,5-dihydro-2H-naphtho[1,2-b][1,4]diazepine-2,4(3H)-dione triethylamine salt] was tested, and the hP2X1R % inhib. [1] was 8%, the hP2X2/3R % inhib. [2] was 4% and the hP2X3R % inhib. [3] was 13%. It also gave a hP2X4R % inhib. [4] of 6%.
CCN(CC)CC.[N-]=[N+]=NCc1ccc2c(Br)cc3c(c2c1)NC(=O)CC(=O)N3c1cccc(-c2noc(=S)[nH]2)c1 [Compound 21h, 10-(azidomethyl)-7-bromo-5-(3-(5-thioxo-4,5-dihydro-1,2,4-oxadiazol-3-yl)phenyl)-1,5-dihydro-2H-naphtho[1,2-b][1,4]diazepine-2,4(3H)-dione triethylamine salt] gave a hP2X1R % inhib. [1] of −13%, a hP2X2/3R % inhib. [2] of −4% and a hP2X3R % inhib. [3] of 15%. The hP2X4R % inhib. [4] was 8% and the “hP2X4R inhibitory activity relative to 22a, in words” value [4] was “inactive”.
In the case of CC(=O)NCc1ccc2ccc3c(c2c1)NC(=O)CC(=O)N3c1cccc(-c2noc(=S)[nH]2)c1.CCN(CC)CC [Compound 21i, N-((2,4-Dioxo-5-(3-(5-thioxo-4,5-dihydro-1,2,4-oxadiazol-3-yl)phenyl)-2,3,4,5-tetrahydro-1H-naphtho[1,2-b][1,4]diazepin-10-yl)methyl) acetamide triethylamine salt], the hP2X2/3R % inhib. [2, 5] is reported as −5%, the hP2X3R % inhib. [3, 6] is reported as 9% and the “hP2X4R inhibitory activity relative to 22a, in words” value [4] is reported as “inactive”. The hP2X4R % inhib. ([4]; percent inhibition at 30 μM, agonist CTP 10 μM) was 16%.
CCN(CC)CC.[N-]=[N+]=NCc1ccc2c3c(ccc2c1)N(c1cccc(-c2noc(=S)[nH]2)c1)C(=O)CC(=O)N3 [Compound 21j, 9-(Azidomethyl)-5-(3-(5-thioxo-4,5-dihydro-1,2,4-oxadiazol-3-yl)phenyl)-1,5-dihydro-2H-naphtho[1,2-b][1,4]diazepine-2,4(3H)-dione triethylamine salt] was tested, and the hP2X1R % inhib. [1] was −5%, the hP2X2/3R % inhib. [2] was 2% and the hP2X3R % inhib. [3] was 0%. The IC50 [4] was 21.3 µM and the “hP2X4R inhibitory activity relative to 22a, in words” value [4] was “destabilizing”.
Compound O=C1CC(=O)N(c2cccc(-c3noc(=S)[nH]3)c2)c2cc(C#Cc3ccccc3)c3ccccc3c2N1 [Compound 21m, 7-(Phenylethynyl)-5-(3-(5-thioxo-4,5-dihydro-1,2,4-oxadiazol-3-yl)phenyl)-1,5-dihydro-2H-naphtho[1,2-b][1,4]diazepine-2,4(3H)-dione] has an inhibition at 30 µM [1] of 14%, an inhibition at 30 µM [2, 5] of 5% and an inhibition at 30 µM [3, 6] of 7%. For the same compound, the inhibition at 30 µM [4] was -4%.
For O=C1CC(=O)N(c2cccc(-c3noc(=S)[nH]3)c2)c2cc(C#Cc3cccnc3)c3ccccc3c2N1 [Compound 21n, 7-(Pyridin-3-ylethynyl)-5-(3-(5-thioxo-4,5-dihydro-1,2,4-oxadiazol-3-yl)phenyl)-1,5-dihydro-2H-naphtho[1,2-b][1,4]diazepine-2,4(3H)-dione], the inhibition at 30 µM [1] was 9%, the inhibition at 30 µM [2, 5] was 13% and the inhibition at 30 µM [3, 6] was 9%. It also gave an inhibition at 30 µM [4] of 34%.
With CCCCC#Cc1cc2c(c3ccccc13)NC(=O)CC(=O)N2c1cccc(-c2noc(=S)[nH]2)c1 [Compound 21o, 7-(Hex-1-yn-1-yl)-5-(3-(5-thioxo-4,5-dihydro-1,2,4-oxadiazol-3-yl)phenyl)-1,5-dihydro-2H-naphtho[1,2-b][1,4]diazepine-2,4(3H)-dione] the inhibition at 30 µM [1] was 16%, the inhibition at 30 µM [2, 5] was 1% and the inhibition at 30 µM [3, 6] was 18%. It also gave an inhibition at 30 µM [4] of 15%.
Work on CCc1cc2c(c3ccccc13)NC(=O)CC(=O)N2c1cccc(-c2noc(=S)[nH]2)c1 [Compound 21p, 7-Ethyl-5-(3-(5-thioxo-4,5-dihydro-1,2,4-oxadiazol-3-yl)phenyl)-1,5-dihydro-2H-naphtho[1,2-b][1,4]diazepine-2,4(3H)-dione triethylamine salt] yielded an inhibition at 30 µM [1] of 6%, an inhibition at 30 µM [2, 5] of 10% and an inhibition at 30 µM [3, 6] of 6%. It also gave an IC50 ([4]; agonist CTP 10 μM (~EC80)) of 5.13 µM.
Compound CCN(CC)CC.NCc1ccc2ccc3c(c2c1)NC(=O)CC(=O)N3c1cccc(-c2noc(=S)[nH]2)c1 [Compound 21q, 10-(Aminomethyl)-5-(3-(5-thioxo-4,5-dihydro-1,2,4-oxadiazol-3-yl)phenyl)-1,5-dihydro-2H-naphtho[1,2-b][1,4]diazepine-2,4(3H)-dione triethylamine salt] has a hP2X1R % inhib. [1] of 8%, a hP2X2/3R % inhib. [2] of 0% and a hP2X3R % inhib. [3] of 9%. It also gave a hP2X4R % inhib. [4] of 9%.
In the case of Cc1cc(-c2noc(=S)[nH]2)cc(N2C(=O)CC(=O)Nc3c2ccc2ccccc32)c1 [Compound 21r, 5-(3-Methyl-5-(5-thioxo-4,5-dihydro-1,2,4-oxadiazol-3-yl)phenyl)-1,5-dihydro-2H-naphtho[1,2-b][1,4]diazepine-2,4(3H)-dione], the inhibition at 30 µM [1] is reported as 16%, the inhibition at 30 µM [2, 5] is reported as 5% and the inhibition at 30 µM [3, 6] is reported as 12%. It also gave an IC50 ([4]; agonist CTP 10 μM (~EC80)) of 14 µM.
For O=C1CC(=O)N(c2cc(-c3noc(=S)[nH]3)ccn2)c2ccc3ccccc3c2N1 [Compound 21s, 5-(4-(5-Thioxo-4,5-dihydro-1,2,4-oxadiazol-3-yl)pyridin-2-yl)-1,5-dihydro-2H-naphtho[1,2-b][1,4]diazepine-2,4(3H)-dione triethylamine salt], the inhibition at 30 µM [1] was 18%, the inhibition at 30 µM [2, 5] was -6% and the inhibition at 30 µM [3, 6] was 18%. The “hP2X4R inhibitory activity relative to 22a, in words” value [4] was “reduce” and the IC50 ([4]; agonist CTP 10 μM (~EC80)) was 13.5 µM.
O=C1CC(=O)N(c2cncc(-c3noc(=S)[nH]3)c2)c2ccc3ccccc3c2N1 [Compound 21t, 5-(5-(5-Thioxo-4,5-dihydro-1,2,4-oxadiazol-3-yl)pyridin-3-yl)-1,5-dihydro-2H-naphtho[1,2-b][1,4]diazepine-2,4(3H)-dione triethylamine salt] gave an inhibition at 30 µM [1] of 15%, an inhibition at 30 µM [2, 5] of 25% and an inhibition at 30 µM [3, 6] of 6%. For the same compound, the “hP2X4R inhibitory activity relative to 22a, in words” value [4] was “reduce” and the IC50 ([4]; agonist CTP 10 μM (~EC80)) was 14.6 µM.
With O=C1CC(=O)N(c2cccc(-c3noc(=S)[nH]3)n2)c2ccc3ccccc3c2N1 [Compound 21v, 5-(6-(5-Thioxo-4,5-dihydro-1,2,4-oxadiazol-3-yl)pyridin-2-yl)-1,5-dihydro-2H-naphtho[1,2-b][1,4]diazepine-2,4(3H)-dione triethylamine salt] the inhibition at 30 µM [1] was at most 31%, the inhibition at 30 µM [2, 5] was 15% and the inhibition at 30 µM [3, 6] was 17%. The “hP2X4R inhibitory activity relative to 22a, in words” value [4] was “reduce” and the IC50 ([4]; agonist CTP 10 μM (~EC80)) was 6.48 µM.
